Reference: US8865911B2, “Compounds and their use as BACE inhibitors” (Astrazeneca AB, priority 2010, dated 2014)

Tested on: sAPPβ release, SH-SY5Y cells
Assay: sAPPβ release assay
Assay type: cell-based
Conditions: compounds incubated 17 h, MSD detection
Method: Thaw cells and seed at a conc. of around 10000 cells/well in DMEM/F-12 with Glutamax, 10% FCS and 1% non-essential amino acids to a 384-well tissue culture treated plate, 100 μL cell susp/well. […] The cell medium was removed, followed by addition of 30 μL compound diluted in DMEM/F-12 with Glutamax, 10% FCS, 1% non-essential amino acids and 1% PeSt to a final conc. of 1% DMSO. The compounds were incubated with the cells for 17 h (overnight) at 37° C., 5% CO2. Meso Scale Discovery (MSD) plates were used for the detection of sAPPβ release. MSD sAPPβ plates were blocked in 1% BSA in Tris wash buffer (40 μL/well) for 1 h on shake at r.t. and washed 1 time in Tris wash buffer (40 μL/well). 20 μL of medium was transferred to the pre-blocked and washed MSD sAPPβ microplates, and the cell plates were further used in an ATP assay to measure cytotoxicity. The MSD plates were incubated with shaking at r.t. for 2 h and the media discarded. 10 μL detection antibody was added (1 nM) per well followed by incubation with shaking at r.t. for 2 h and then discarded. 40 μL Read Buffer was added per well and the plates were read in a SECTOR Imager.

| IC50 [nM] | Compound | also measured |
| --- | --- | --- |
|  | CCC1=NC2(N=C1N)c1cc(-c3cccc(C#N)c3)ccc1C[C@]21CC[C@@H](OC)CC1 (single isomer, unassigned) [Example 71 Isomer 1, 3-[(1r,4r)-4″-amino-5″-ethyl-4-methoxy-3′H-dispiro-[cyclohexane-1,2′-indene-1′,2″-imidazol]-6′-yl]benzonitrile] | IC50 (listed as 71 Isomer 1): 5.2 nM |
| 419 | CC1=NC2(CC3(CCCOC3)Oc3ccc(-c4cccc(Cl)c4)cc32)N=C1N (single isomer, unassigned) [Example 46a Isomer 1, 6′-(3-Chlorophenyl)-5-methyl-5″,6″-dihydro-4″H-dispiro[imidazole-2,4′-chromene-2′,3″-pyran]-4-amine] |  |
| 17 | CC1=NC2(CC(C3CCOC(C)(C)C3)Oc3ccc(-c4cccc(Cl)c4)cc32)N=C1N (racemic) [Example 50 Isomeric mixture 2, 6-(3-Chlorophenyl)-2-(2,2-dimethyltetrahydro-2H-pyran-4-yl)-5′-methylspiro[chroman-4,2′-imidazol]-4′-amine] |  |
|  | CC#Cc1cncc(-c2ccc3c(c2)C2(N=C(N)C(CC)=N2)[C@]2(CC[C@H](OC)CC2)C3)c1 (single isomer, unassigned) [Example 68 Isomer 1, (1r,4r)-5″-ethyl-4-methoxy-6′-[5-(prop-1-yn-1-yl)pyridin-3-yl]-3′H-dispiro[cyclohexane-1,2′-indene-1′,2″-imidazol]-4″-amine] | IC50 (Homo sapiens, SH-SY5Y, 17 h): 0.38 nM |

| Compound | IC50 [nM] | also measured |
| --- | --- | --- |
| CO[C@H]1CC[C@]2(CC1)Cc1ccc(-c3cc(Br)cc(C#N)c3)cc1C21N=C(C)C(N)=N1 (single isomer, unassigned; isomer 1) [Example 94 Isomer 1, 3-[(1r,4r)-4″-Amino-4-methoxy-5″-methyl-3′H-dispiro[cyclohexane-1,2′-indene-1′,2″-imidazol]-6′-yl]-5-bromobenzonitrile] | 0.17 |  |
